In paper PMC11356819 (Molecules, 2024):

Columns and labels:
[1] = system: U87-WT tumors; assay: PET imaging and 2TCM kinetic modelling of subcutaneous U87-WT tumors; format: in vivo
Text: (§1) The in vivo tumor uptake and mIDH selectivity of [^18F]4 were investigated by small animal PET imaging in CB17-SCID mice bearing subcutaneous U87-WT and U87-mIDH tumors, which were implanted in the right and left shoulder region, respectively (Figure 6).
(§2) Although the use of an image-derived input function instead of an invasive arterial input function could introduce some degree of systematic bias (due to, e.g., a lack of correction for spill-over and metabolism), this should affect the parameter estimation for both tumors in a given animal in the same manner and therefore have little impact on inter-tumor comparisons.
(§3) Six male CB17-SCID mice (24–26 g) were used for the subcutaneous tumor model. Twenty-four hours before tumor implantation, the animals were injected (i.p.) with 20 µL anti-asialo GM1 rabbit (Fujifilm Wako Chemicals Europe GmbH, Neuss, Germany) in 0.9% NaCl (total volume: 100 µL) to promote tumor cell survival and growth through a temporary reduction in natural killer cell activity. For tumor inoculation, suspensions of 5 × 10^6 tumor cells in 75 µL culture medium and 75 µL Corning Matrigel (Merck, Darmstadt, Germany) were injected subcutaneously into the right (U87-WT cells) and left (U87-mIDH cells) shoulder region.
(§4) The mice were anesthetized with isoflurane (5% for induction, 2% for maintenance) in O2/air (3:7), and a catheter for tracer injection was inserted into the lateral tail vein. They were placed on an animal holder (Medres, Cologne, Germany) and fixed with a tooth bar in a respiratory mask. Body temperature was maintained at 37 °C by warming the animal bed. Eyes were protected from drying with Bepanthen eye and nose ointment (Bayer, Leverkusen, Germany). Respiratory rate was monitored and maintained at around 40–60 breaths per minute by adjusting the isoflurane concentration. A PET scan in list mode was conducted using a Focus 220 micro PET scanner (CTI-Siemens, Erlangen, Germany) with a resolution at the center of the field of view of 1.4 mm. Data acquisition started with intravenous tracer injection and ended after 120 min. This was followed by a 10 min transmission scan using a ^57Co point source for attenuation correction. After the scan was completed, the catheter was removed and the animals were allowed to wake up in their home cage. Data were histogrammed in three ways: (1) 4 × 30 min frames for visual display, (2) 28 frames (2 × 1 min, 2 × 2 min, 6 × 4 min, 18 × 5 min) for determination of time–activity curves, (3) 53 frames (12 × 10 s, 6 × 30 s, 15 × 1 min, 20 × 5 min) for kinetic modelling. Full 3D rebinning was followed by an iterative OSEM3D/MAP reconstruction algorithm with attenuation and decay correction. The resulting voxel sizes were 0.47 mm × 0.47 mm × 0.80 mm.

[2] = system: U87-mIDH cells; assay: cellular uptake in U87-mIDH cells; format: cell-based, human
Procedure: (§5) Consistent with this assumption, uptake of [^18F]4 and, to a lesser extent, the ^18F-fluoroethoxylated analog [^18F]5 by both cell lines was considerably higher than that of (S)-[^18F]2.
(§6) Human glioblastoma cells with a c.395G>A knock-in mutation encoding mIDH1R132H (HTB-14IG™) and the corresponding wildtype cells (HTB-14™) were purchased from the American Type Culture Collection (ATCC). The cells were grown under standard culture conditions (5% CO2 and 95% air at 37 °C) in Eagle’s Minimum Essential Medium (MEM) supplemented with 10% fetal bovine serum (FBS) and antibiotics (penicillin–streptomycin mixed solution, Gibco, Thermo Fisher Scientific, Oberhausen, Germany).
(§7) For the cellular uptake studies, 1.5 × 10^5 cells were seeded into gelatin-coated 12-well transwell plates and incubated in 1 mL MEM (without FBS and antibiotics) containing 18.5 kBq (0.5 µCi) of the corresponding radiotracer. After incubation at 21 °C for 1 h, the supernatant was collected, the cells were lysed with 40 mM NaOH and the radioactivity of both fractions was measured with a gamma counter. The total protein concentration of the cell lysate was measured by a bicinchoninic acid (BCA) assay. The radiotracer uptake was calculated as the ratio of radioactivity in the cell fraction and the supernatant and normalized by protein content (% uptake/100 µg protein). Statistical analysis of the results was performed with Originlab Pro 2023b using two-tailed t-tests with a significance level of 0.05 to identify significant differences between groups.

[3] = lipophilicity by shake-flask method (n-octanol/water or PBS); format: physicochemical; conditions: triplicate
Procedure: As a measure for the lipophilicity of the four radiolabeled probes, their partition coefficients (logP) and distribution coefficients at pH 7.4 (logD7.4) were determined by the shake-flask method. Table 1 summarizes the results of these experiments and compares them with the predicted logD7.4 values calculated using the ADMETlab platform.
A solution of the corresponding radiotracer in DMSO (1 µL) was added to a mixture of n-octanol and PBS (pH = 7.4) or water (750 µL of each) in a 2 mL Eppendorf vial and the vial was vortexed for 2 min and centrifuged for another 2 min to separate the two phases. A total of 300 µL of the upper n-octanol phase was then carefully removed from the top, while 300 µL of the aqueous phase was removed by piercing the bottom of the vial with a syringe and cannula to avoid contact with the organic phase. Both fractions were transferred into fresh vials and counted in a gamma counter to determine the ratio between the activity in the organic and the aqueous phase. All measurements were performed in triplicate and the results are expressed as mean ± standard deviation of the logarithm of the partition coefficient between n-octanol and water (logP) or the logarithm of the distribution coefficient between n-octanol and PBS (logD7.4), respectively.

[4] = system: U87-mIDH tumors; assay: PET imaging and 2TCM kinetic modelling of subcutaneous U87-mIDH tumors; format: in vivo
Text: as §1, §2, §3, §4

[5] = system: U87-WT cells; assay: cellular uptake in U87-WT cells; format: cell-based, human; conditions: incubation 1 h
Procedure: as §5, §6, §7

For COc1cc(NCc2cc3cc([18F])ccc3[nH]c2=O)ccc1C#N [[^18F]4], the “Ratio (WT/mIDH) of SUVbw” value ([1]; 0–30 min) was 1.1, the “SUVbw U87-WT” value ([1]; 0–30 min) was 35 ± 4 and the “Ratio (WT/mIDH) of SUVbw” value ([1]; 30–60 min) was 1.7. The “SUVbw U87-WT” value ([1]; 30–60 min) was 42 ± 9, the “Ratio (WT/mIDH) of SUVbw” value ([1]; 60–90 min) was 1.9 and the “SUVbw U87-WT” value ([1]; 60–90 min) was 36 ± 10. The “Ratio (WT/mIDH) of SUVbw” value ([1]; 90–120 min) was 1.9, the “SUVbw U87-WT” value ([1]; 90–120 min) was 30 ± 10 and the K1 ([1]; U87-WT tumor, 2TCM, n = 5) was 0.174 ± 0.068 mL/ccm/min. The K1/k2 ([1]; U87-WT tumor, 2TCM, n = 5) was 0.345 ± 0.172 mL/ccm, the “VS (specific distribution volume)” value ([1]; U87-WT tumor, 2TCM, n = 5) was 0.576 ± 0.143 mL/ccm and the “VT (total distribution volume)” value ([1]; U87-WT tumor, 2TCM, n = 5) was 0.921 ± 0.250 mL/ccm. For the same molecule, the k2 ([1]; U87-WT tumor, 2TCM, n = 5) was 0.553 ± 0.238 min⁻¹, the k3 ([1]; U87-WT tumor, 2TCM, n = 5) was 0.089 ± 0.059 min⁻¹ and the “k3/k4, BPND (non-displaceable binding potential)” value ([1]; U87-WT tumor, 2TCM, n = 5) was 1.874 ± 0.653 1/1. For the same molecule, the k4 ([1]; U87-WT tumor, 2TCM, n = 5) was 0.044 ± 0.022 min⁻¹, the “max. SUVbw U87-WT tumors” value ([1]; after 38 min, n = 3) was 45 ± 8 and the “fold higher cellular uptake than (S)-[^18F]2” value ([2]; U87-mIDH and U87-WT cells) was 5−8 fold. It also gave a cellular uptake ([2]; U87-mIDH cells, incubation 1 h) of 6.0 ± 2.0 % per 100 µg protein, a logD ([3]; n-octanol/PBS pH 7.4, shake-flask, read-out: logD7.4 Exp. Determined) of 2.67 ± 0.04 and a logP ([3]; n-octanol/water, shake-flask, read-out: logP) of 2.5 ± 0.03. For the same molecule, the “SUVbw U87-mIDH” value ([4]; 0–30 min) was 31 ± 3, the “SUVbw U87-mIDH” value ([4]; 30–60 min) was 24 ± 2 and the “SUVbw U87-mIDH” value ([4]; 60–90 min) was 18 ± 1. For the same molecule, the “SUVbw U87-mIDH” value ([4]; 90–120 min) was 16 ± 1, the K1 ([4]; U87-mIDH tumor, 2TCM, n = 5) was 0.141 ± 0.047 mL/ccm/min and the K1/k2 ([4]; U87-mIDH tumor, 2TCM, n = 5) was 0.246 ± 0.063 mL/ccm. For the same molecule, the “VS (specific distribution volume)” value ([4]; U87-mIDH tumor, 2TCM, n = 5) was 0.225 ± 0.070 mL/ccm, the “VT (total distribution volume)” value ([4]; U87-mIDH tumor, 2TCM, n = 5) was 0.471 ± 0.084 mL/ccm and the k2 ([4]; U87-mIDH tumor, 2TCM, n = 5) was 0.578 ± 0.173 min⁻¹. The k3 ([4]; U87-mIDH tumor, 2TCM, n = 5) was 0.057 ± 0.040 min⁻¹, the “k3/k4, BPND (non-displaceable binding potential)” value ([4]; U87-mIDH tumor, 2TCM, n = 5) was 0.962 ± 0.399 1/1 and the k4 ([4]; U87-mIDH tumor, 2TCM, n = 5) was 0.053 ± 0.023 min⁻¹. For the same molecule, the “max. SUVbw U87-mIDH tumors” value ([4]; peak after 8 min, n = 3) was 35 ± 8 and the cellular uptake [5] was 4.7 ± 1.4 % per 100 µg protein.
